Tests used:
[1] = target: GDP-bound NRAS wild-type protein (Homo sapiens, UniProt P01111); test: Binding to NRAS by surface plasmon resonance (SPR), Single Cycle Kinetics; details: KD ratio NRAS/KRAS, class symbols
[2] = target: GDP-bound HRAS wild-type protein (Homo sapiens, UniProt P01112); test: Binding to HRAS by surface plasmon resonance (SPR), Single Cycle Kinetics; details: KD ratio HRAS/KRAS, class symbols
GDP-bound HRAS wild-type protein, sequence (P01112 whole entry): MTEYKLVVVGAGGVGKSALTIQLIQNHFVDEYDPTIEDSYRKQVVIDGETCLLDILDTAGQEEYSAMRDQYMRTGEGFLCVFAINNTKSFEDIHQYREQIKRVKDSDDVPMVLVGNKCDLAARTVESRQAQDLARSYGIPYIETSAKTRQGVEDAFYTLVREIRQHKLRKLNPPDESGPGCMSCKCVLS

GDP-bound NRAS wild-type protein, sequence (P01111 whole entry): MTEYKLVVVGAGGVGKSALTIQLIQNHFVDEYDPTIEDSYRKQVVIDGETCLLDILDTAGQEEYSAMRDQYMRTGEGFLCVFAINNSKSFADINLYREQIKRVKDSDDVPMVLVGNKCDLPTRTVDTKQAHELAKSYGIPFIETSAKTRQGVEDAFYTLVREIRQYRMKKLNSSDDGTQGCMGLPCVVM

Row | SMILES | NRAS/KRAS (ratio of KD value with respect to GDP-bound NRAS wild-type protein to KD value with respect to KRAS) [1] | HRAS/KRAS (ratio of KD value with respect to GDP-bound HRAS wild-type protein to KD value with respect to KRAS) [2]
1 | CCC[C@H]1C(=O)N[C@@H]([C@@H](C)CC)C(=O)N(C)CC(=O)N(C)[C@H]2C/C=C\CCN(C2=O)[C@@H](Cc2ccc(C)cc2)C(=O)N(C)CC(=O)N[C@@H](CCc2ccc(Cl)c(Cl)c2)C(=O)N2C[C@H](OC(C)C)C[C@H]2C(=O)NC2(CC(C)(C)C2)C(=O)N(C)[C@@H](C(CC)CC)C(=O)N(C)[C@H](C(=O)N(C)C)CC(=O)N1C [PP2537] | AA (a compound having 20 or more is denoted as AA) | A (a compound having 10 or more and less than 20 is denoted as A)
2 | CCC[C@H]1C(=O)N[C@@H](CC(C)C)C(=O)N(CC)CC(=O)N(C)[C@H]2C/C=C\CCN(C2=O)[C@@H](Cc2ccc(C)cc2)C(=O)N(C)CC(=O)N[C@@H](CCc2cc(F)c(C(F)(F)F)c(F)c2)C(=O)N2C[C@H](OCC)C[C@H]2C(=O)NC2(CCC2)C(=O)N(C)[C@@H](C2CCCC2)C(=O)N(C)[C@H](C(=O)N(C)C)CC(=O)N1C [PP2539] | A (a compound having 10 or more and less than 20 is denoted as A) | B (a compound having 3 or more and less than 10 is denoted as B)
3 | CCC[C@H]1C(=O)N[C@@H](CC(C)C)C(=O)N(CC)CC(=O)N(C)[C@H]2C/C=C\CCN(C2=O)[C@@H](Cc2ccc(C)cc2)C(=O)N(C)CC(=O)N[C@@H](CCc2ccc(C(F)(F)F)c(OC)c2)C(=O)N2C[C@H](OCC)C[C@H]2C(=O)NC2(CCC2)C(=O)N(C)[C@@H](C2CCCC2)C(=O)N(C)[C@H](C(=O)N(C)C)CC(=O)N1C [PP2540] | A (a compound having 10 or more and less than 20 is denoted as A) | B (a compound having 3 or more and less than 10 is denoted as B)
4 | CCC[C@H]1C(=O)N[C@@H](CC(C)C)C(=O)N(CCOC)CC(=O)N(C)[C@H]2C/C=C\CCN(C2=O)[C@@H](Cc2ccc(C)cc2)C(=O)N(C)CC(=O)N[C@@H](CCc2cc(F)c(C(F)(F)F)c(F)c2)C(=O)N2C[C@H](OCC)C[C@H]2C(=O)NC2(CCC2)C(=O)N(C)[C@@H](C2CCCC2)C(=O)N(C)[C@H](C(=O)N(C)C)CC(=O)N1C [PP2541] | A (a compound having 10 or more and less than 20 is denoted as A) | B (a compound having 3 or more and less than 10 is denoted as B)
5 | CCC[C@H]1C(=O)N[C@@H](CC(C)C)C(=O)N(CCOC)CC(=O)N(C)[C@H]2C/C=C\CCN(C2=O)[C@@H](Cc2ccc(C)cc2)C(=O)N(C)CC(=O)N[C@@H](CCc2ccc(C(F)(F)F)c(OC)c2)C(=O)N2C[C@H](OCC)C[C@H]2C(=O)NC2(CCC2)C(=O)N(C)[C@@H](C2CCCC2)C(=O)N(C)[C@H](C(=O)N(C)C)CC(=O)N1C [PP2542] | B (a compound having 3 or more and less than 10 is denoted as B) | B (a compound having 3 or more and less than 10 is denoted as B)
6 | CCC[C@H]1C(=O)N[C@@H](CC(C)C)C(=O)N(CC)CC(=O)N(C)[C@H]2C/C=C\CCN(C2=O)[C@@H](Cc2ccc(C)cc2)C(=O)N(C)CC(=O)N[C@@H](CCc2ccc(C(F)(F)F)c(Cl)c2)C(=O)N2C[C@H](OCC)C[C@H]2C(=O)NC2(CCC2)C(=O)N(C)[C@@H](C2CCCC2)C(=O)N(C)[C@H](C(=O)N(C)C)CC(=O)N1C [PP2545] | A (a compound having 10 or more and less than 20 is denoted as A) | A (a compound having 10 or more and less than 20 is denoted as A)
7 | CCC[C@H]1C(=O)N[C@@H](CC(C)C)C(=O)N(CCOC)CC(=O)N(C)[C@H]2C/C=C\CCN(C2=O)[C@@H](Cc2ccc(C)cc2)C(=O)N(C)CC(=O)N[C@@H](CCc2ccc(C(F)(F)F)c(Cl)c2)C(=O)N2C[C@H](OCC)C[C@H]2C(=O)NC2(CCC2)C(=O)N(C)[C@@H](C2CCCC2)C(=O)N(C)[C@H](C(=O)N(C)C)CC(=O)N1C [PP2546] | B (a compound having 3 or more and less than 10 is denoted as B) | B (a compound having 3 or more and less than 10 is denoted as B)
8 | CCC[C@H]1C(=O)N[C@@H](CC(C)C)C(=O)N2C[C@@H](OC)C[C@H]2C(=O)N(C)[C@H]2C/C=C\CCN(C2=O)[C@@H](Cc2ccc(C)cc2)C(=O)N(C)CC(=O)N[C@@H](CCc2cc(F)c(C(F)(F)F)c(F)c2)C(=O)N2C[C@H](OCC)C[C@H]2C(=O)NC2(CCC2)C(=O)N(C)[C@@H](C2CCCC2)C(=O)N(C)[C@H](C(=O)N(C)C)CC(=O)N1C [PP2547] | A (a compound having 10 or more and less than 20 is denoted as A) | B (a compound having 3 or more and less than 10 is denoted as B)
9 | CCC[C@H]1C(=O)N[C@@H](CC(C)C)C(=O)N2C[C@@H](OC)C[C@H]2C(=O)N(C)[C@H]2C/C=C\CCN(C2=O)[C@@H](Cc2ccc(C)cc2)C(=O)N(C)CC(=O)N[C@@H](CCc2ccc(C(F)(F)F)c(OC)c2)C(=O)N2C[C@H](OCC)C[C@H]2C(=O)NC2(CCC2)C(=O)N(C)[C@@H](C2CCCC2)C(=O)N(C)[C@H](C(=O)N(C)C)CC(=O)N1C [PP2548] | A (a compound having 10 or more and less than 20 is denoted as A) | B (a compound having 3 or more and less than 10 is denoted as B)
10 | CCC[C@H]1C(=O)N[C@@H](CC(C)C)C(=O)N2C[C@@H](OC)C[C@H]2C(=O)N(C)[C@H]2C/C=C\CCN(C2=O)[C@@H](Cc2ccc(C)cc2)C(=O)N(C)CC(=O)N[C@@H](CCc2ccc(C(F)(F)F)c(Cl)c2)C(=O)N2C[C@H](OCC)C[C@H]2C(=O)NC2(CCC2)C(=O)N(C)[C@@H](C2CCCC2)C(=O)N(C)[C@H](C(=O)N(C)C)CC(=O)N1C [PP2549] | A (a compound having 10 or more and less than 20 is denoted as A) | B (a compound having 3 or more and less than 10 is denoted as B)
11 | CCC[C@H]1C(=O)N[C@@H]([C@@H](C)CC)C(=O)N2C[C@@H](OC)C[C@H]2C(=O)N(C)[C@H]2C/C=C\CCN(C2=O)[C@@H](Cc2ccc(C)cc2)C(=O)N(C)CC(=O)N[C@@H](CCc2cc(F)c(C(F)(F)F)c(F)c2)C(=O)N2C[C@H](OCC)C[C@H]2C(=O)NC2(CCC2)C(=O)N(C)[C@@H](C2CCCC2)C(=O)N(C)[C@H](C(=O)N(C)C)CC(=O)N1C [PP2550] | A (a compound having 10 or more and less than 20 is denoted as A) | B (a compound having 3 or more and less than 10 is denoted as B)
12 | CCC[C@H]1C(=O)N[C@@H](CC(C)C)C(=O)N2C[C@@H](OC)C[C@H]2C(=O)N(C)[C@H]2C/C=C\CCN(C2=O)[C@@H](Cc2ccc(C)cc2)C(=O)N(C)CC(=O)N[C@@H](CCc2cc(F)c(C(F)(F)F)c(F)c2)C(=O)N2C[C@H](OCC)C[C@H]2C(=O)NC2(CC(C)(C)C2)C(=O)N(C)[C@@H](C2CCCC2)C(=O)N(C)[C@H](C(=O)N(C)C)CC(=O)N1C [PP2553] | A (a compound having 10 or more and less than 20 is denoted as A) | B (a compound having 3 or more and less than 10 is denoted as B)
13 | CCC[C@H]1C(=O)N[C@@H](CC(C)C)C(=O)N2C[C@@H](OC)C[C@H]2C(=O)N(C)[C@H]2C/C=C\CCN(C2=O)[C@@H](Cc2ccc(C)cc2)C(=O)N(C)CC(=O)N[C@@H](CCc2ccc(C(F)(F)F)c(OC)c2)C(=O)N2C[C@H](OCC)C[C@H]2C(=O)NC2(CC(C)(C)C2)C(=O)N(C)[C@@H](C2CCCC2)C(=O)N(C)[C@H](C(=O)N(C)C)CC(=O)N1C [PP2554] | A (a compound having 10 or more and less than 20 is denoted as A) | B (a compound having 3 or more and less than 10 is denoted as B)
14 | CCC[C@H]1C(=O)N[C@@H](CC(C)C)C(=O)N2C[C@@H](OC)C[C@H]2C(=O)N(C)[C@H]2C/C=C\CCN(C2=O)[C@@H](Cc2ccc(C)cc2)C(=O)N(C)CC(=O)N[C@@H](CCc2ccc(C(F)(F)F)c(Cl)c2)C(=O)N2C[C@H](OCC)C[C@H]2C(=O)NC2(CC(C)(C)C2)C(=O)N(C)[C@@H](C2CCCC2)C(=O)N(C)[C@H](C(=O)N(C)C)CC(=O)N1C [PP2555] | A (a compound having 10 or more and less than 20 is denoted as A) | B (a compound having 3 or more and less than 10 is denoted as B)
15 | CCC[C@H]1C(=O)N[C@@H]([C@@H](C)CC)C(=O)N2C[C@@H](OC)C[C@H]2C(=O)N(C)[C@H]2C/C=C\CCN(C2=O)[C@@H](Cc2ccc(C)cc2)C(=O)N(C)CC(=O)N[C@@H](CCc2cc(F)c(C(F)(F)F)c(F)c2)C(=O)N2C[C@H](OCC)C[C@H]2C(=O)NC2(CC(C)(C)C2)C(=O)N(C)[C@@H](C2CCCC2)C(=O)N(C)[C@H](C(=O)N(C)C)CC(=O)N1C [PP2556] | A (a compound having 10 or more and less than 20 is denoted as A) | B (a compound having 3 or more and less than 10 is denoted as B)

— US20250230193A1, “CYCLIC COMPOUND HAVING SELECTIVE KRAS INHIBITORY EFFECT ON HRAS AND NRAS” (CHUGAI SEIYAKU KABUSHIKI KAISHA, priority 2022, published 2025)
